# Laboratory results published in paper PMC10151572, “The identification of viral ribonucleotide reductase encoded by ORF23 and ORF141 genes and effect on CyHV-2 replication” (Frontiers in Microbiology, 2023).
# Assays:
# [1] = target: T1, CyHV-2 RR (ORF23-GST + ORF141-His) (Cyprinid herpesvirus 2, UniProt K7PBF0+K7PBQ3); test: RR activity, dCDP formation by HPLC after borate column; assay type: biochemical; conditions: CDP 80 μM with ATP 2.7 mM, dATP, dTTP, dGTP, UDP, ADP, GDP; both subunits needed; 50 mM HEPES-KOH, 5 mM MgCl2, 50 mM DTT, 20 mM ferrous ammonium sulfate; 1 h at 4°C
# T1 construct: gene CyHV2_ORF23; recombinant ORF23-GST and ORF141-His mixed in vitro; RR described in general as two homodimers (alpha2beta2)
# [2] = target: T1, CyHV-2 RR (ORF23-GST + ORF141-His); test: as above; assay type: biochemical; conditions: hydroxyurea 80 μM; 10 μg of both recombinant proteins; CDP 80 μM, ATP 2.7 mM, other nucleotides; 50 mM HEPES-KOH, 5 mM MgCl2, 50 mM DTT, 20 mM ferrous ammonium sulfate; 1 h at 4°C
SMILES,"RR activity, dCDP formation by HPLC after borate column [1]",% activity reduction at 80 μM [2] [%]
Nc1ccn([C@@H]2O[C@H](COP(=O)(O)OP(=O)(O)O)[C@@H](O)[C@H]2O)c(=O)n1 [CDP],interaction between ORF23-GST and ORF141-His proteins is essential for catalyzing the reduction of CDP to,–
NC(=O)NO [hydroxyurea],–,52
